Activity calls are given as the source filed them. The rule behind the calls is not given here. Where a SMILES comes first, the peptide text is derived from it. The star is where a group is joined. Cbz = O=C(OCc1ccccc1)*; CH2F = FC*

Assay [1] concerns the target Transient receptor potential cation channel subfamily M member 7 (Mus musculus) (UniProt Q923J1). The conditions noted are these: at 25 to 50 µM.
Description: Inhibition of TRPM7 in mouse NMuMG cells assessed as suppression of TGFbeta1-induced calpain activity by measuring Filamin-A levels at 25 to 50 uM incubated for 24 to 72 hrs by Western blot analysis
Assay [2] deals with Mothers against decapentaplegic homolog 2 (Mus musculus) (UniProt Q62432). Put plainly: Inhibition of TGFbeta1-induced SMAD2 phosphorylation in mouse NMuMG cells at 25 to 50 uM incubated for 72 hrs. Type of assay: cell-based.
Sequence of Mothers against decapentaplegic homolog 2 (Mus musculus) (Q62432 whole entry): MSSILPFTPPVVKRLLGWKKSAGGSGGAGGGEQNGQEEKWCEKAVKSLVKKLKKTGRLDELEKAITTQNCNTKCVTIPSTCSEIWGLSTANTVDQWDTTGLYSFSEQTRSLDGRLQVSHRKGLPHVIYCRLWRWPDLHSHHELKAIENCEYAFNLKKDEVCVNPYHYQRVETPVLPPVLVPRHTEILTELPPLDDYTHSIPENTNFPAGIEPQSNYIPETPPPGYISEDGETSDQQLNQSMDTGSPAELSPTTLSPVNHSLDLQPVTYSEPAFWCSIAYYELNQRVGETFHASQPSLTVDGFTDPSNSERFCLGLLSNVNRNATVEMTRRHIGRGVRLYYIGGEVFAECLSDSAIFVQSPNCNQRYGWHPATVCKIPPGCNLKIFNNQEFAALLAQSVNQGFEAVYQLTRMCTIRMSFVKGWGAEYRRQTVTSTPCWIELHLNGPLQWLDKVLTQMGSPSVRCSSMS
For assay [3], the target named is Transient receptor potential cation channel subfamily M member 7 (Mus musculus) (UniProt Q923J1). The conditions noted are these: at 25 to 50 µM. This is another data set of the same source.
Sequence of Transient receptor potential cation channel subfamily M member 7 (Mus musculus) (Q923J1 whole entry): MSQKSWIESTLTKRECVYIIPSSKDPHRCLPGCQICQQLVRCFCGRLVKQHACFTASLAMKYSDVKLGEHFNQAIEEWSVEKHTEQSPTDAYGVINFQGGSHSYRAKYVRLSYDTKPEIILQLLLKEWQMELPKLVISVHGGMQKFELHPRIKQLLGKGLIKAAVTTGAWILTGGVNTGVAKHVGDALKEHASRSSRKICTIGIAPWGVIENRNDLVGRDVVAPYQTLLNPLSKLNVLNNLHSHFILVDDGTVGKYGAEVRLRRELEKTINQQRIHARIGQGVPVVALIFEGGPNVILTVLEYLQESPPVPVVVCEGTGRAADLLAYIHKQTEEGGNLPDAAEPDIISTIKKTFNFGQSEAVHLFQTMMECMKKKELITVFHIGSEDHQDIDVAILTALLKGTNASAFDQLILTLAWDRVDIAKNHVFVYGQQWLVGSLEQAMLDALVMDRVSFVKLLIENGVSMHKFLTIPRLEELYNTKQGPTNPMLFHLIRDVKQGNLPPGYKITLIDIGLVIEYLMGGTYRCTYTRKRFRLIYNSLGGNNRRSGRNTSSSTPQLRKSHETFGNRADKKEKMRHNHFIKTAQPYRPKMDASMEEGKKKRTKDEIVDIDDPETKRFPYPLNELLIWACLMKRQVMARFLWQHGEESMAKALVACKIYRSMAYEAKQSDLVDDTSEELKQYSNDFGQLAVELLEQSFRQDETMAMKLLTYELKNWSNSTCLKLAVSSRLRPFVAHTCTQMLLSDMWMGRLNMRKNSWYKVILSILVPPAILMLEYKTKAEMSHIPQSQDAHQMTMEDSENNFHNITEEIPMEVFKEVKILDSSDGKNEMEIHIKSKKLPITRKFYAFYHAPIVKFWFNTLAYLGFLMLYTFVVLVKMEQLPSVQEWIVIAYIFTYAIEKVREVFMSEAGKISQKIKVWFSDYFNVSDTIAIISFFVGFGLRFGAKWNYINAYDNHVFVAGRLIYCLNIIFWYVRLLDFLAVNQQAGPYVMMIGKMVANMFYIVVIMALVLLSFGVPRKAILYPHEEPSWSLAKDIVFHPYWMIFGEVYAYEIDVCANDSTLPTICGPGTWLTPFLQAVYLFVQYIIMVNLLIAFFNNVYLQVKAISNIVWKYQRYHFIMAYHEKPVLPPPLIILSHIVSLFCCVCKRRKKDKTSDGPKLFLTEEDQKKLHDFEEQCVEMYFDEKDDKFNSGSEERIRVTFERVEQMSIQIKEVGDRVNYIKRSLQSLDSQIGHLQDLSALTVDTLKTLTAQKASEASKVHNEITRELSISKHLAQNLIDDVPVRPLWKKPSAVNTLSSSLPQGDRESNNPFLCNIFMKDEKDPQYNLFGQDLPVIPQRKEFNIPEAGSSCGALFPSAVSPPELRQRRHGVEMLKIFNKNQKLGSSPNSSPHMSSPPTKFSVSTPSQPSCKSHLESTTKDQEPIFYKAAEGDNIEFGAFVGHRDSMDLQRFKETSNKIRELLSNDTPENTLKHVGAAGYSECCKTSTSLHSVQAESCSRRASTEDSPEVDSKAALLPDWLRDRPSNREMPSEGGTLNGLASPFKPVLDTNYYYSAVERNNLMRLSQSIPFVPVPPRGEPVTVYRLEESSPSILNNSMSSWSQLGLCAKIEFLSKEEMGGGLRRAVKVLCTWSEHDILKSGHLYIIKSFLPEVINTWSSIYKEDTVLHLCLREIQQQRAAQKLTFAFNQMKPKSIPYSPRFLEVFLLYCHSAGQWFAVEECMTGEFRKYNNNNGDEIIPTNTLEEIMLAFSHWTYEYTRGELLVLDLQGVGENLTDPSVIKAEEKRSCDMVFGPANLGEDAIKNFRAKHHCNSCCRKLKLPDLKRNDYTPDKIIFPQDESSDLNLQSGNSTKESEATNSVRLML
Description: Inhibition of TRPM7 in mouse NMuMG cells assessed as suppression of TGFbeta1-induced EMT by measuring alpha-SMA expression at 25 to 50 uM incubated for 24 to 72 hrs by Western blot analysis
In assay [4] the target is Transient receptor potential cation channel subfamily M member 7 (Homo sapiens) (UniProt Q96QT4). Put plainly: Inhibition of TRPM7 in NHLF assessed as inhibition of TGFB1-induced FMT by measuring alpha-SMA expression at 25 to 50 uM incubated for 24 hrs by Western blot analysis. A general note: A western blot detects proteins with antibodies after separation by electrophoresis.
Sequence of Transient receptor potential cation channel subfamily M member 7 (Homo sapiens) (Q96QT4 whole entry): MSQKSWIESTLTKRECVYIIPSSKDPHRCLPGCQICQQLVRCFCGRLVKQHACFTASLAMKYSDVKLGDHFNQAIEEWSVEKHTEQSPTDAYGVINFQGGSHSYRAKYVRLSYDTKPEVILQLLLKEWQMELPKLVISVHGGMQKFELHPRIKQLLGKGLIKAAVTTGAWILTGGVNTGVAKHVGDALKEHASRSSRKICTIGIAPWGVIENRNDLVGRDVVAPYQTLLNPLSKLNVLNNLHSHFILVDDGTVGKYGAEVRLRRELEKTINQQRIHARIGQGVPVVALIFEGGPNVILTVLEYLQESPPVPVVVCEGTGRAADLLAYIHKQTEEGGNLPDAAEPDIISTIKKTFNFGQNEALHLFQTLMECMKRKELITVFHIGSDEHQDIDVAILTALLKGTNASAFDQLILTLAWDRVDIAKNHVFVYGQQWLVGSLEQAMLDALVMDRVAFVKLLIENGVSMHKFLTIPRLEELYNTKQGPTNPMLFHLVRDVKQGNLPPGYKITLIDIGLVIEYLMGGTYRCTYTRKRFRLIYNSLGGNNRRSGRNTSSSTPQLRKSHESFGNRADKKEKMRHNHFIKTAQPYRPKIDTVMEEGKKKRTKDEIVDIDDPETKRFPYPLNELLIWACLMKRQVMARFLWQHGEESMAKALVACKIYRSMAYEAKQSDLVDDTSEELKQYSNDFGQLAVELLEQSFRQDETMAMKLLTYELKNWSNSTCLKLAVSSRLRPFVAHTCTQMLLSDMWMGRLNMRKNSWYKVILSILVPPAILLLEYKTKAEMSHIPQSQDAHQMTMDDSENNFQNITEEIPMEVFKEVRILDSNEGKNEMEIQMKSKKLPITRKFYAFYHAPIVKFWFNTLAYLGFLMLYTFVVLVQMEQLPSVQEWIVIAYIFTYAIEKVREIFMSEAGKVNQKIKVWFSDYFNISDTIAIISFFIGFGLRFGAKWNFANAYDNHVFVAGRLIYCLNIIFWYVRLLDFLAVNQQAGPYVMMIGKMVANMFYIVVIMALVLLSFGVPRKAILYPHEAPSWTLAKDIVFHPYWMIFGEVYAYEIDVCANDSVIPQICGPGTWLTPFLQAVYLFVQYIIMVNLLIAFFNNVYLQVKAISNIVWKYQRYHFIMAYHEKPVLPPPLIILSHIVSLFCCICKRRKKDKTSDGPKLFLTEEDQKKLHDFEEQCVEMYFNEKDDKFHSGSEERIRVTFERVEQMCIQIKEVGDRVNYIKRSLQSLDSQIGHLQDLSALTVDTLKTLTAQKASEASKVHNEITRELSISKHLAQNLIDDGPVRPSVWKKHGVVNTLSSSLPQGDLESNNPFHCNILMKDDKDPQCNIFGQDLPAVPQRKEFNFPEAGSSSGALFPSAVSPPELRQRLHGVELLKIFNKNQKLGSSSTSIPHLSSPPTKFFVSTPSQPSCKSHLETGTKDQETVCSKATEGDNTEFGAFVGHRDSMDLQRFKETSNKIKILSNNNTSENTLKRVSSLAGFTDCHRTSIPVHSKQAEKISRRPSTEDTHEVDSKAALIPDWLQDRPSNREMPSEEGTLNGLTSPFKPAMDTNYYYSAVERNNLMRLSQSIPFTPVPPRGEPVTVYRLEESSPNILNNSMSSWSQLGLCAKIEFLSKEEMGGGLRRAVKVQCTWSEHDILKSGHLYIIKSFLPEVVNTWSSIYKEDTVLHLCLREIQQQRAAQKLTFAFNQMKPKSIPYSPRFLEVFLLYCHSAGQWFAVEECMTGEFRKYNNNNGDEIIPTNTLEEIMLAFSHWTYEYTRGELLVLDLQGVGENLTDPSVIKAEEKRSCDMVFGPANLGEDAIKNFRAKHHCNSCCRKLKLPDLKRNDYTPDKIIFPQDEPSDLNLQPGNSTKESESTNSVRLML

In the next assay the target is T1, Calpain-9 (Homo sapiens, UniProt O14815).
T1 sequence (O14815 whole entry): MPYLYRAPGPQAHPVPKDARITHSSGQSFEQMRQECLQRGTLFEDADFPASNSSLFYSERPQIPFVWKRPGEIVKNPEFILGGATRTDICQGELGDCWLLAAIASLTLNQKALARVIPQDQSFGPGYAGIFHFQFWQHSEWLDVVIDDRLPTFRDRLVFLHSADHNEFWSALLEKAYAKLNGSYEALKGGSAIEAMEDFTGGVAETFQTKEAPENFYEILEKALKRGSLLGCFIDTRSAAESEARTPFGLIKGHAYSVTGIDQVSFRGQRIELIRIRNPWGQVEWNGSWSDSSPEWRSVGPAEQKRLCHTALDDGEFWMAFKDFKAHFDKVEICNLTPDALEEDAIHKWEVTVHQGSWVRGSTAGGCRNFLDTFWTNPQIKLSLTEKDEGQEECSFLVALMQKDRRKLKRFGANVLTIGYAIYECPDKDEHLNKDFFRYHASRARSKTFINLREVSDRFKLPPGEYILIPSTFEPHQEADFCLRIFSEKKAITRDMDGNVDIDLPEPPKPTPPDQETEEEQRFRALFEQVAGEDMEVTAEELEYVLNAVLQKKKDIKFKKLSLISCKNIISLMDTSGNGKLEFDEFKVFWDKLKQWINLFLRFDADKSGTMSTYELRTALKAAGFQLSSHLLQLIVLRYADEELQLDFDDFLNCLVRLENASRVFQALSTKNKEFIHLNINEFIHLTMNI
Put plainly: Inhibition of human recombinant mini-CAPN9 pre-incubated for 10 mins before calpain FRET peptide 5-FAM /QXL520 substrate addition by FLIPR assay.

In assay [5] the target is Mothers against decapentaplegic homolog 2 (Mus musculus) (UniProt Q62432). The conditions noted are these: at 25 to 50 µM.
Description: Inhibition of TGFbeta1-induced SMAD2 phosphorylation in mouse NMuMG cells at 25 to 50 uM incubated for 24 to 72 hrs
For assay [6], the species on record is Mus musculus. Put plainly: Inhibition of calpain in mouse NMuMG cells assessed as suppression of TGFbeta1-induced EMT by measuring alpha-SMA expression at 25 to 50 uM incubated for 24 to 72 hrs by Western blot analysis. Type of assay: cell-based.
Assay [7] is filed under the species Mus musculus. Put plainly: Inhibition of calpain in mouse NMuMG cells assessed as suppression of TGFbeta1-induced calpain activity by measuring Filamin-A levels at 25 to 50 uM incubated for 24 to 72 hrs by Western blot analysis. Type of assay: cell-based.
The species entered for assay [8] is Mus musculus. Put plainly: Inhibition of TGFbeta receptor in mouse NMuMG cells assessed as suppression of TGFbeta1-induced calpain activity by measuring Filamin-A levels at 1 to 10 uM incubated for 24 to 72 hrs by Western blot analysis. Type of assay: cell-based.
The species entered for assay [9] is Mus musculus. Put plainly: Inhibition of TGFbeta receptor in mouse NMuMG cells assessed as suppression of TGFbeta1-induced SMAD2 phosphorylation at 1 to 10 uM incubated for 24 to 72 hrs by Western blot analysis. The assay is classed as cell-based.
For assay [10], the species on record is Mus musculus. Put plainly: Inhibition of TGFbeta receptor in mouse NMuMG cells assessed as suppression of TGFbeta1-induced EMT by measuring alpha-SMA expression at 1 to 10 uM incubated for 24 to 72 hrs by Western blot analysis. The assay is classed as cell-based.
The species named for assay [11] is Mus musculus. Put plainly: Inhibition of calpain in mouse NMuMG cells assessed as suppression of TGFbeta1-induced actin cytoskeleton reorganization at 10 to 20 uM incubated for 48 to 72 hrs after 72 hrs pre-incubation with TGFbeta with continued presence of TGFbeta. Type of assay: cell-based.
For assay [12], the species on record is Mus musculus. Put plainly: Inhibition of calpain in mouse NMuMG cells assessed as suppression of TGFbeta1-induced EMT by measuring MMP2 expression at 10 to 20 uM incubated for 48 hrs. The assay is classed as cell-based.
The target in assay [13] is Mothers against decapentaplegic homolog 2 (Mus musculus) (UniProt Q62432). Put plainly: Inhibition of TGFbeta1-induced SMAD2 phosphorylation in mouse NMuMG cells at 10 to 20 uM incubated for 24 to 72 hrs. The assay is classed as cell-based.
The species entered for assay [14] is Mus musculus. Put plainly: Inhibition of calpain in mouse NMuMG cells assessed as suppression of TGFbeta1-induced EMT by measuring MMP9 expression at 10 to 20 uM incubated for 48 hrs. The assay is classed as cell-based.
For assay [15], the species on record is Mus musculus. Put plainly: Inhibition of calpain in mouse NMuMG cells assessed as suppression of TGFbeta1-induced E-cadherin expression at 10 to 20 uM incubated for 48 to 72 hrs after 72 hrs pre-incubation with TGFbeta with continued presence of TGFbeta by immunofluorescence microscopy. Type of assay: cell-based.
Assay [16] is filed under the species Mus musculus. Put plainly: Inhibition of calpain in mouse NMuMG cells assessed as suppression of TGFbeta1-induced actin cytoskeleton reorganization at 10 to 20 uM. The assay is classed as cell-based.
For assay [17], the species on record is Mus musculus. Put plainly: Inhibition of calpain in mouse NMuMG cells assessed as suppression of TGFbeta1-induced EMT by measuring vimentin expression at 10 to 20 uM incubated for 48 hrs. The assay is classed as cell-based.
The test system of a further assay is MDCK. Put plainly: Inhibition of calpain in MDCK cells assessed as suppression of TGFbeta1-induced EMT by measuring alpha-SMA expression at 10 to 20 uM incubated for 24 to 72 hrs by Western blot analysis. The assay is classed as cell-based. The conditions noted are these: Canis lupus familiaris.
The species named for assay [18] is Mus musculus. Put plainly: Inhibition of calpain in mouse NMuMG cells assessed as suppression of TGFbeta1-induced EMT by measuring alpha-SMA expression at 10 to 20 uM incubated for 48 to 72 hrs after 72 hrs pre-incubation with TGFbeta with continued presence of TGFbeta by Western blot analysis. The assay is classed as cell-based.
In assay [19] the target is Calpain1/2 (Homo sapiens) (UniProt P17655+P07384). Conditions: 10 to 20 uM.
Description: Inhibition of calpain in NHLF assessed as inhibition of TGFB1-induced FMT by measuring alpha-SMA expression at 10 to 20 uM incubated for 24 hrs by Western blot analysis
Assay [20] is filed under the species Mus musculus. Put plainly: Inhibition of calpain in mouse NMuMG cells assessed as suppression of TGFbeta1-induced E-cadherin expression at 10 to 20 uM by immunofluorescence microscopy. The assay is classed as cell-based.
Assay [21] is filed under the species Mus musculus. Put plainly: Inhibition of calpain in mouse NMuMG cells assessed as suppression of TGFbeta1-induced EMT by measuring alpha-SMA expression at 10 to 20 uM incubated for 24 to 72 hrs by Western blot analysis. The assay is classed as cell-based.
The species named for assay [22] is Mus musculus. Put plainly: Inhibition of calpain in mouse NMuMG cells assessed as suppression of TGFbeta1-induced EMT by measuring collagen 1A1 expression at 10 to 20 uM incubated for 48 hrs. The assay is classed as cell-based.
The species named for assay [23] is Mus musculus. Put plainly: Inhibition of calcineurin in mouse NMuMG cells assessed as suppression of TGFbeta1-induced EMT by measuring alpha-SMA expression at 0.25 to 0.75 uM incubated for 72 hrs by Western blot analysis. The assay is classed as cell-based.

For `c1ccc2c(c1)CCC[C@H]2Nc1nc2ccccc2[nH]1`, the inhibition result in assay [1], in assay [3] and in assay [4] was “Active” throughout. Moreover, in assay [2], the inhibition result is “inactive”.
As usually defined, the IC50 is the concentration needed to halve the response being measured. Regarding `C[C@H](NC(=O)[C@H](Cc1ccccc1)NC(=O)OCc1ccccc1)C(=O)CF`, the IC50 at Calpain-9 came out at 100 µM.
On the same count and under the same terms, next, `COC(=O)C[C@H](NC(=O)[C@H](C)NC(=O)[C@@H](NC(=O)OCc1ccccc1)C(C)C)C(=O)CF` (Cbz-Val-Ala-Asp(OMe)-CH2F): 100 µM.
With `CCCC[C@@H](C=O)NC(=O)[C@H](CC(C)C)NC(=O)OCc1ccccc1`, the inhibition entry in assay [5] is “inactive”. Moreover, the inhibition entry in the assay filed under Mus musculus [6] and in the assay listed under Mus musculus [7] was “Active” throughout.
`NC(=O)c1ccc(-c2nc(-c3ccccn3)c(-c3ccc4c(c3)OCO4)[nH]2)cc1`: the inhibition result in the assay listed under Mus musculus [8], in the assay listed under Mus musculus [9] and in the assay listed under Mus musculus [10] was “Active” in each case.
For `CC(C)[C@H](NC(=O)OCc1ccccc1)C(=O)N[C@H](C=O)Cc1ccccc1` (Cbz-Val-Phe-aldehyde), the inhibition result in the assay filed under Mus musculus [11], in the assay filed under Mus musculus [12], in the assay filed under Mus musculus [14], in the assay listed under Mus musculus [15], in the assay listed under Mus musculus [16] and in the assay listed under Mus musculus [17] was “Active” in each case. The inhibition result (in the assay on MDCK; in the assay listed under Mus musculus [18]; in assay [19]; in the assay filed under Mus musculus [20]; in the assay listed under Mus musculus [21]; in the assay listed under Mus musculus [22]) was “Active” in each case. The inhibition entry in assay [13] is “inactive”.
For the molecule `C=CC[C@@H]1/C=C(\C)C[C@H](C)C[C@H](OC)[C@H]2O[C@@](O)(C(=O)C(=O)N3CCCC[C@H]3C(=O)O[C@H](/C(C)=C/[C@@H]3CC[C@@H](O)[C@H](OC)C3)[C@H](C)[C@@H](O)CC1=O)[C@H](C)C[C@@H]2OC`, the inhibition entry in the assay listed under Mus musculus [23] was “Active”.
Consider `NCCOB(c1ccccc1)c1ccccc1`, for which the inhibition entry in assay [1] and in [3] was “Active” in each case. In addition, the inhibition result in assay [5] was “inactive”.
